# Key:
# [1] = tested on: BMDM; assay: RT-qPCR of M2 macrophage signature genes in BMDM; format: cell-based, mouse; conditions: CXCL5 50 ng, Kyn 1 mM, 24 hr
# Protocol: (§1) Scale bars, 50μm. […] Scale bars, 100 μm. […] (isTDO2 and isTDO2/shCXCL5 #2 groups, n=7, isTDO2/shCXCL5 #3, n=8). ****P<0.0001. two-tailed t-test. […] (shControl and shCXCL5 #2 groups, n=7, shCXCL5 #3, n=8). ****P<0.0001. two-tailed t-test.
# (§2) RNA was isolated from cells using Trizol (Invitrogen) following the manufacturer's instructions. RNA (200-500 ng) was first treated with RNase-free DNase I using the DNA-free kit (Ambion) to remove all genomic DNA, and then reverse-transcribed into cDNA using an ABI High Capacity cDNA RT Kit (Invitrogen). The cDNA was analyzed using real-time quantitative PCR (SYBR Green, Invitrogen) with an Applied Biosystems 7900 Sequence Detection System. Each reaction was performed in triplicate. The expression of each gene was normalized by that of mouse Actin or human GAPDH.
# [2] = tested on: Raw264.7; assay: Transwell migration assay of macrophages in conditioned media; format: cell-based, mouse; conditions: recombinant CXCL5 protein 50 ng, 36 hr
# Protocol: Two-way ANOVA analysis. […] Dox food was applied at day 5 post-orthotopic injection to induce TDO2 knockdown in vivo. n=4 per group. n.s.P>0.05, *P<0.05, […], ****P<0.0001. two-tailed t-test. […] FIGS. 12D and 12E show quantification of macrophages (F4/80+; FIG. 12D) and M2 macrophages (CD206+; FIG. 12E) in tumors shown in FIG. 12C. CyTOF data analyzed by FlowJo. Data represent mean±s.d., n=3 per group. *P<0.05, **P<0.01. two-tailed t-test. […] Recombinant CXCL5 protein (50 ng) and SX-682 (1 μM) were added to harvested condition media for 36 hr. Scale bar, 100 μm. n=3 biological replicates. Quantification is shown in lower panel. n.s. P>0.05, ***P<0.001, ****P<0.0001. two-tailed t-test. […] Clondronate liposomes or control encapsome liposomes were given intraperitoneally (100 μl) at day 2 post-orthotopic injection and three times a week. […]
# Macrophages (1×10^4 for Raw264.7 and BMDM) were suspended in serum-free culture medium and seeded into 24-well Transwell inserts ([…]). […] After 24 h, the migrated macrophages were fixed and stained with crystal violet (0.05%, sigma), and then counted as cells per field of view under microscope or measured as OD590 nm (expressed as migration index) after crystal violet was dissolved.
# [3] = tested on: Raw264.7 cells; assay: RT-qPCR of M2 macrophage signature genes in Raw264.7 cells with conditioned media; format: cell-based, mouse; conditions: conditioned media from APC-KO MC38 cells, 30 h
# Protocol: as §1, §2
# [4] = tested on: BMDM; assay: RT-qPCR analysis of Gas6 expression in BMDM; format: cell-based, mouse; conditions: Kyn 1 mM, CXCL5 50 ng, Gas6 25 ng, 24 hr
# Protocol: (§3) The red box indicates Axl. […] Six replicates per group. two-tailed t-test. *P<0.05. […] Epithelial cells are stained with EpCam and indicated by GFP. X63 magnification. […] Total flux measurement of at the end point. **P<0.01. two-tailed t-test. […] Total flux measurement of tumors was done at the end point. **P<0.01. two-tailed t-test.
# (§4) To evaluate whether secreted factors from cancer cells might upregulate Gas6 expression in macrophages, BMDMs were incubated with conditioned media from MC38 cell lines. […] (FIG. 15H). Finally, to validate the roles of Gas6 in promoting tumor growth in vivo, CT26 cell lines and two independent Raw 264.7 shGas6 cell lines were co-injected into syngeneic Balb/CJ mice (FIG. 15I).
# as §2
# [5] = tested on: CT26; assay: Orthotopic co-injection of CT26 cells and Raw264.7 macrophages, tumor growth; format: in vivo, mouse; conditions: Raw264.7 pre-treated with 100 ng of CXCL5 for 48 h before injection; BalB/CJ mice
# Protocol: as §3, §4
# Mice were grouped by 5 animals in large plastic cages and were maintained under pathogen-free conditions. All animal studies were performed with the approval of MD Anderson Cancer Center's Institutional Animal Care and Use Committee (IACUC). NSG (NOD.Cg-Prkdc^scid Il2rg^tm1Wjl/SzJ), C57BL/J6J, and BALB/cJ mice were purchased from Jackson laboratory (Stock No: 005557, 000664, 000651). Colorectal orthotopic xenograft tumor models were established by following protocol (Tseng et al., 2007, JoVE).
# [6] = biological target: T1, Axl (Mus musculus, UniProt Q00993); assay: Immunoblots for Axl and phospho-Axl; format: cell-based; conditions: APC-WT and APC-KO MC38 cells; R428 0.2 μM 24 h; rmGAS6 24 h
# T1 construct: immunoblots for Axl and phospho-Axl in APC-WT and APC-KO MC38 cells after R428 treatment (0.2 μM, 24 h); endogenous in cells; host or cells: MC38 mouse colorectal cancer cells, APC-WT and isogenic APC-KO
# T1 sequence (Q00993 19-888): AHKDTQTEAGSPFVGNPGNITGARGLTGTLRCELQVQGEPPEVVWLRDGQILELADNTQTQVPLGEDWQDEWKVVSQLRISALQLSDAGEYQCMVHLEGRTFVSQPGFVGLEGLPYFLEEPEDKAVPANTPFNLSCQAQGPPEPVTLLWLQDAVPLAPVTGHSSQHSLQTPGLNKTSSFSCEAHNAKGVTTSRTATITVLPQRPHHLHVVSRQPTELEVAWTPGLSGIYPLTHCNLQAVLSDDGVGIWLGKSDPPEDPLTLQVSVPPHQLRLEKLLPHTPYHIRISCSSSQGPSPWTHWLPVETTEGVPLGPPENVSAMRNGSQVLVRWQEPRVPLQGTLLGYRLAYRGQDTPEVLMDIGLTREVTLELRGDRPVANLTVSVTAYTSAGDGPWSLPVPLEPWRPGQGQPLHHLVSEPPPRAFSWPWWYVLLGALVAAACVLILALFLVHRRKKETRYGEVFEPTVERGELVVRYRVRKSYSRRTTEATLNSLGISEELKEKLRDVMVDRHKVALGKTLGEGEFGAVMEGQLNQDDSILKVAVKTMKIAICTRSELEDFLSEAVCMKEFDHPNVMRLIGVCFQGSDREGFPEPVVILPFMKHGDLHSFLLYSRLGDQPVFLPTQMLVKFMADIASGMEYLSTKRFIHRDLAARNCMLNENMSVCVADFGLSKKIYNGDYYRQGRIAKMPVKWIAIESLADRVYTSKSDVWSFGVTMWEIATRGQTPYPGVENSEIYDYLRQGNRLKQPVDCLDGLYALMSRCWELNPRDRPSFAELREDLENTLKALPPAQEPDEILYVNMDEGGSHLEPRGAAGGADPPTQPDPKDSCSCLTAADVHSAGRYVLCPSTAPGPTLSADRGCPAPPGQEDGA
# Text: as §3
# (§5) Gas6 is a ligand of Axl and is secreted mainly by tumor-associated macrophages in the TME (Loges et al., 2010), raising the possibility that macrophage-derived Gas6 might activate Axl to support the growth of APC-deficient cancer cells.
# Cell lysates were prepared with RIPA lysis buffer (Roche) with protease inhibitor […] Immunoblotting was performed following standard protocol. Antibodies were purchased from the indicated companies.
# [7] = tested on: APC-WT and APC-KO MC38 cells; assay: Cell viability assay with R428; format: cell-based, mouse; conditions: R428 0.5 μM, 48 h
# Text: as §3, §5
# [8] = tested on: LS180 and HT-29 cell lines; assay: Colony formation assay with Gas6 and R428; format: cell-based, human; conditions: Gas6 25 ng with R428 1 μM, 36 hr
# Text: as §3, §5
# Colorectal cancer cell proliferation in vitro was assayed through colony formation. 1×10^3 cells were seeded in each well of 6-well plates and cultured for 5-7 days. At the end point, cells were fixed and stained with 0.5% crystal violet in 25% methanol for 1 hr. These studies were performed in triplicate.
Compound,M2 macrophage markers [1],macrophage recruitment with CM from APC-KO TDO2 depleted MC38 cells [2],M2 macrophage markers decreased by TDO2 knockdown [3],Gas6 expression [4],growth of CT26 tumors co-injected with pre-treated macrophages [5],Axl phosphorylation [6],sensitivity of APC-deficient vs APC-intact MC38 cells [7],effect on Gas6-promoted cancer cell growth [8]
"CXCL5: recombinant CXCL5 protein, cytokine",M2 macrophage markers increased,rescue of macrophage recruitment,rescued by CXCL5 supplementation,increased Gas6 expression,promoted the growth of CT26 significantly,–,–,–
Nc1nc(Nc2ccc3c(c2)CCC(N2CCCC2)CC3)nn1-c1cc2c(nn1)-c1ccccc1CCC2 (centres unmarked) [R428],–,–,–,–,–,reduce Axl phosphorylation,increased sensitivity,reversed by R428 treatment

# From US20230250433A1, “METHODS AND COMPOSITIONS FOR TREATMENT OF APC-DEFICIENT CANCER” (Board of Regents, The University of Texas System, priority 2020, published 2023)
